Test results published in patent US20020028938A1, “Prostaglandin endoperoxide H synthase biosynthesis inhibitors” (priority 1997, published 2002).
pIC50: −log10 of the molar value.

Assays:
[1] = biological target: T1, recombinant human Cox-1 (r-hu Cox1) (Homo sapiens, UniProt P23219); experiment: Recombinant human PGHS-1 enzyme assay (RHUCX1); type: biochemical; conditions: for inhibition at 100 µM / inhibition at 10 µM: read-out: RHUCX1 % Inh. at Dose; for pIC50: read-out: RHUCX1 IC50 (parenthetical value)
T1 construct: made in house; host or cells: baculovirus/Sf9 insect cells (microsomes)
In short: (§1)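 PGE2 production measured by enzyme immunoassay with standards in the same milieu. Inhibition was computed versus control group mean and IC50 estimated by linear regression.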

[2] = biological target: T2, recombinant human Cox-2 (r-hu Cox-2) (Homo sapiens, UniProt P35354); experiment: Recombinant human PGHS-2 enzyme assay (RHUCX2); type: biochemical; conditions: for pIC50: read-out: RHUCX2 IC50 (parenthetical value)
T2 construct: made in house; host or cells: baculovirus/Sf9 insect cells (microsomes)
T2 sequence (P35354 18-604): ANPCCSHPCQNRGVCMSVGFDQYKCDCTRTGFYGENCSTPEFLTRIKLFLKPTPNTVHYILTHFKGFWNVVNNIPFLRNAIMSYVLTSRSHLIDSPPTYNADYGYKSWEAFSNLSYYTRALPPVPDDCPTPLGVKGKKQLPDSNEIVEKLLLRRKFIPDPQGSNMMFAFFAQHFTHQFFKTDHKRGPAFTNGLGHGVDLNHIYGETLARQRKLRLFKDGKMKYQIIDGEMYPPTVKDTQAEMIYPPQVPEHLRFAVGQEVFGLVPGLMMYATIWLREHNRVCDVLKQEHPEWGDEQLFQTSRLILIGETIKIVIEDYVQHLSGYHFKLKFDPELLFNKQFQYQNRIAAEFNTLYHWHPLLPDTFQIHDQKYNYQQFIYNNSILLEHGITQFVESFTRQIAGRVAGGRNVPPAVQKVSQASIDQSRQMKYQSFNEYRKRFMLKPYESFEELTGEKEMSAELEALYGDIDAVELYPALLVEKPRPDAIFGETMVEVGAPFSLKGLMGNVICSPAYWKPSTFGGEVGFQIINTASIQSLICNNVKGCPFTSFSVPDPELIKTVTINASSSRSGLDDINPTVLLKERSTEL
In short: as §1

[3] = biological target: T3, Human Whole Platelet Cyclooxygenase-1 (Homo sapiens, UniProt P23219); experiment: Human Whole Platelet Cyclooxygenase-1 assay (HWPX); type: cell-based; conditions: read-out: HWPX IC50 (parenthetical value)
T3 construct: from tissue; host or cells: human blood: isolated platelets (A4) or heparinised whole blood (A9)
In short: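 Thromboxane production was measured with a commercial kit after stimulation of washed human platelets (ACD-anticoagulated volunteer blood) by 8.8 μM final A23187 for 10 min. Test compounds were added 10 min before stimulus; cold 6 mM EDTA terminated the reaction.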

[4] = biological target: T4, human amnionic whole cell cyclooxygenase-2 (WISH cells) (Homo sapiens, UniProt P35354); experiment: IL-1β induced PGE2 production in WISH cells; type: cell-based; conditions: read-out: Wish IC50 (parenthetical value)
T4 construct: endogenous in cells; host or cells: human amnionic WISH cells, induced with IL-1beta
T4 sequence (P35354 18-604): T2 sequence (P35354 18-604)
In short: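 PGE2 was quantified by enzyme immunoassay (optical density read) against standards made up in the matching medium. WISH cells at 80% confluence, washed and placed in serum-free Neuman-Tytell medium, received 5 ng/ml IL-1β plus test compound or DMSO vehicle (0.01% v/v).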

[5] = tested on: prostaglandin biosynthesis in vivo (pleural lavage eicosanoids); experiment: Rat carrageenan pleural inflammation (CIP) model; conditions: 4 h, 10 mpk oral, read-out: CIP % Inhib. @ 10 mpk
Description: For oral administration, test compounds were suspended on the day of use in 100% polyethyleneglycol (PEG 400) with a motorized homogenizer equipped with a Teflon-coated pestle (TRI-R Instrument, Jamaica, N.Y.).
To compare the mean responses of the treatment groups, analysis of variance was applied. Percent inhibition values were determined by comparing the individual treatment mean values to the mean of the control group. Linear regression was used to estimate IC50's/ED50's in appropriate assays.
Pleural inflammation was induced in male adrenalectomized Sprague-Dawley rats following the method of Vinegar et al., Fed. Proc. 1976, 35, 2447-2456. Animals were orally dosed with experimental compounds, 30 minutes prior to the intrapleural injection of 2% lambda carrageenan (Sigma Chemical Co., St. Louis Mo.). Four hours later the animals were euthanized and the pleural cavities lavaged with ice cold saline. The lavage fluid was then added to two volumes of ice cold methanol (final methanol concentration 66%) to lyse cells and precipitate protein. Eicosanoids were determined by EIA as described above.

[6] = tested on: carrageenan induced paw edema; experiment: Carrageenan induced paw edema (CPE) in rats; type: in vivo; conditions: rat; for inhibition in vivo at 10 mg/kg: 10 mpk oral, 3 hours after carrageenan, read-out: CPE % Inhib. @ 10 mpk
In short: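 Male Sprague-Dawley rats (170–190 g) dosed orally in PEG 400, 1 h before subplantar 0.1 ml 1% lambda carrageenan in right hindpaw. Plethysmographic paw volume at 0 and 3 h; edema as difference, % inhibition versus control mean (±SEM), Dunnett's test, ED50 by linear regression.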

[7] = tested on: air pouch prostaglandin biosynthesis (Cox-2); experiment: Carrageenan induced air pouch prostaglandin biosynthesis model (CAP); type: in vivo, rat; conditions: for inhibition in vivo at 3 mg/kg: 4 h, 3 mpk, rat, read-out: CAP % Inhib. @ 3 mpk; for ED50: Rattus norvegicus
In short: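 Male Sprague Dawley rats with dorsal air pouches (20 mL air day 0, 10 mL day 3) received 0.2% lambda carrageenan in saline into the pouch on day 7. Compounds dosed at 0.1 to 10 mg/kg 30 min before carrageenan; pouch lavaged 4 h later, prostaglandins measured by EIA. Percent inhibition versus control mean; ED50 by linear regression.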

[8] = biological target: T5, Cox-1 in Monocyte U937 cells (Homo sapiens, UniProt P23219); experiment: Monocyte U937 cell Cox-1 assay; type: cell-based
T5 construct: endogenous in cells; host or cells: U937 monocyte cells (ATCC)
Description: Human amnionic WISH cells were grown to 80% confluence in 48 well plates. Following removal of the growth medium and two washings with Geys Balanced Salt Solutn, 5 ng IL-1β /ml (UBI, Lake Placid, N.Y.) was added to the cells with or without test compound in DMSO (0.01% v/v) in Neuman-Tytell Serumless Medium (GIBCO, Grand Island, N.Y.). Following an 18 hour incubation to allow for the maximal induction of PGHS-2, the conditioned medium was removed and assayed for PGE2 content by EIA analysis as described above.
Monocyte U937 (ATCC, Rockville, Md.) cells were grown in a similar fashion to the WISH cells. After incubation, the conditioned medium was removed and assayed for […] by EIA analysis as described above.

[9] = Pharmacokinetic profile (plasma concentration, half life, AUC); type: in vivo, Rat
Human whole blood Cox-1 = biological target: T6, Human whole blood Cox-1 (Homo sapiens, UniProt P23219); experiment: Human whole blood assay Cyclooxygenase-1; type: cell-based; conditions: 30 micromolar
T6 construct: from tissue; host or cells: human blood: isolated platelets (A4) or heparinised whole blood (A9)
Description: Heparin anticoagulated blood was incubated with drugs dissolved in DMSO. The samples are incubated at 37 degrees Celsius for 4.5 hours after which calcium ionophore at a final concentration of 30 μM was added and the mixture allowed to incubate for 30 minutes. The reaction was stopped with the addition of EGTA and cold methanol (50% final concentration). After 18 hours at −70 degrees Celsius, the plates were centrifuged and supernatants analyzed for TXB2.

Human whole blood Cox-2 = biological target: T7, Human whole blood Cox-2 (Homo sapiens, UniProt P35354); experiment: Human whole blood assay Cyclooxygenase-2; type: cell-based; conditions: 0.03 micromolar
T7 construct: from tissue; host or cells: heparinised human whole blood stimulated with E. coli LPS
T7 sequence (P35354 18-604): T2 sequence (P35354 18-604)
Description: Heparin anticoagulated blood was incubated with drugs dissolved in DMSO. The samples are incubated at 37 degrees Celsius for 15 minutes. E. coli lipopolysaccaride (LPS) 5 μg/ml dded and the samples incubated for 5 hours. The reaction was stopped with the addition of EGTA and cold methanol (50% final concentration). After 18 hours at −70 degree Celsius, the plates were centrifuged and supernatants analyzed for TXB2.

[10] = read-out: RHUCX2 % Inh. at Dose

T1 sequence (P23219 24-599): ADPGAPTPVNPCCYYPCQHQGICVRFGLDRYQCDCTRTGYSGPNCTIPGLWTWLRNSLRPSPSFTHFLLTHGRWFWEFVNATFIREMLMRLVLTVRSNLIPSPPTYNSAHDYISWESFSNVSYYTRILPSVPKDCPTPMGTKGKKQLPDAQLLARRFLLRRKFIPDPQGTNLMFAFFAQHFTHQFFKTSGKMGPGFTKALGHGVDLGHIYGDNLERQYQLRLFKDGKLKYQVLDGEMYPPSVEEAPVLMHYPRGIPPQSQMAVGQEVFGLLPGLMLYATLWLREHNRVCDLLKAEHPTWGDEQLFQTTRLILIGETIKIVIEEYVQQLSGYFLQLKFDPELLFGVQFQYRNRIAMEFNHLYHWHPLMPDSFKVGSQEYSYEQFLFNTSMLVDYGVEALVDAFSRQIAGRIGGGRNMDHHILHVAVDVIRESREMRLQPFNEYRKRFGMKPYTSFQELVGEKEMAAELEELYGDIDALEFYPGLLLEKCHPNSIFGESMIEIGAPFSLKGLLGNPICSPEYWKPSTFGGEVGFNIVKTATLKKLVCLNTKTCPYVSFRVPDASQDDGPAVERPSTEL
T3 sequence (P23219 24-599): as above
T5 sequence (P23219 24-599): as above
T6 sequence (P23219 24-599): as above

Row | SMILES | inhibition at 100 µM [1] [%] | pIC50 [2] | pIC50 [3] | pIC50 [4] | inhibition in vivo at 10 mg/kg [5] [%] | inhibition in vivo at 10 mg/kg [6] [%] | inhibition in vivo at 3 mg/kg [7] [%] | melting point [°C] | pIC50 [1] | other results
1 | CS(=O)(=O)c1ccc(-c2cnn(-c3ccc(F)c(Cl)c3)c(=O)c2-c2ccc(F)cc2)cc1 [Example 187, 2-(3-Chloro-4-fluorophenyl)-4-(4-fluorophenyl)-5-[4-(methylsulfonyl)phenyl]-3(2H)-pyridazinone] | 2 | 7.03 | 4.90 | 7.82 | 51 | 28 | 30 | 155 to 157 |  | 
2 | CC(C)=CCn1ncc(-c2ccc(S(C)(=O)=O)cc2)c(-c2ccc(F)cc2)c1=O [Example 24, 2-(3-Methyl-2-butenyl)-4-(4-fluorophenyl)-5-[4-(methylsulfonyl)phenyl]-3(2H)-pyridazinone] | 60 |  |  |  |  |  |  | 169 to 172 |  | inhibition at 10 µM [1]: 0%; pIC50 ([8]; read-out: U937 IC50 (parenthetical value)): 6.72
3 | CS(=O)(=O)c1ccc(-c2cnn(-c3ccc(Cl)c(F)c3)c(=O)c2-c2ccc(F)cc2)cc1 [Example 190] |  | 6.87 | 5.00 | 7.52 | 60 | 28 | 71 | 102 to 110 | 5.73 | 
4 | CS(=O)(=O)c1ccc(-c2cnn(Cc3ccc(F)cc3)c(=O)c2-c2ccc(F)cc2)cc1 [Example 20] | 10 |  |  | 9.00 |  |  |  | 153 to 154 |  | inhibition at 0.01 µM [2, 10]: 9%; inhibition at 0.1 µM [2, 10]: 86%; inhibition at 1 µM ([8]; U-937, 1 μM, read-out: U937 % Inhib. at Dose): 33%
5 | CC(C)CCOc1c(-c2ccc(S(C)(=O)=O)cc2)cnn(-c2ccc(F)cc2)c1=O [Example 375, 2-(4-Fluorophenyl)-4-(3-methylbutoxy)-5-[4-(methylsulfonyl)phenyl]-3(2H)-pyridazinone] | 46 | 6.74 | 5.69 | 7.05 |  | 47 | 77.5 | 117 to 120 |  | inhibition at 10 µM [1]: 31%; ED50 [7]: 0.57 mg/kg; half-life ([9]; Rat IV (3mg/kg)): 2.9 h; AUC ([9]; rat): 1800 nM·h; concentration at 14 day ([9]; rat, oral, based on 10 mg/kg dosage, read-out: 14 day plasma micromolar concentration): 0 µM
6 | NS(=O)(=O)c1ccc(-c2cnn(CC=C(Cl)Cl)c(=O)c2-c2ccc(F)cc2)cc1 [Example 119, 2-(3,3-Dichloro-2-2-propenyl)-4-(4-fluorophenyl)-5-[4-(aminosulfonyl)phenyl)-3(2H)-pyridazinone] |  | 7.57 | 7.12 | 9.00 | 82 | 27 | 76 | 184 to 185 | 6.75 | 
7 | CC(C)(O)CCOc1c(-c2ccc(S(C)(=O)=O)cc2)cnn(-c2ccc(F)c(F)c2)c1=O [Example 471, 2-(3,4-Difluorophenyl)-4-(3-hydroxy-3-methyl-1-butoxy)-5-[4-(methylsulfonyl)phenyl]-3(2H)-pyridazinone] |  | 6.31 | 6.49 | 7.40 |  | 41 |  | 131 to 133 | 5.43 | ED50 [7]: 0.9 mg/kg; inhibition at 30 µM (Human whole blood Cox-1): 55.5%; inhibition at 0.03 µM (Human whole blood Cox-2): 85%
8 | NS(=O)(=O)c1ccc(-c2cnn(CC(F)(F)F)c(=O)c2-c2ccc(Cl)cc2)cc1 [Example 69, 2-(2,2,2-Trifluoroethyl)-4-(4-chlorophenyl)-5-[4-(aminosulfonyl)phenyl]-3(2H)-pyridazinone] | 2 |  | 5.94 | 7.70 | 61 | 45.5 | 87 | 154 to 156 |  | inhibition at 0.01 µM [2, 10]: 30%; inhibition at 0.1 µM [2, 10]: 29%; inhibition at 1 µM ([2]; 1 μM, read-out: RHUCX2 % Inh. at Dose): 88%; CPE ED30 ([6]; oral): ED30 = 5.4
